# Reference: patent publication US5346913A, “N-iodopropargyl hydantoin compounds, compositions, preparation, and use as antimicrobial agents” (Rohm and Haas Company, priority 1992, dated 1994)
# Where two headings read alike, the source gives them in different places.
# What was measured:
# [1] = system: Pseudomonas aerugenosa; assay: MIC, broth two-fold serial dilution test, Pseudomonas aerugenosa (Psae); assay type: cell-based
# Source text: (§1) The compounds identified with a prime (') were the non-iodo analogues of the invention compounds, i.e., the compounds of formula III or IV. All data are reported in ppm of active ingredient required to control the respective organism. The indication "No In." means that the compound had no inhibitory activity at 500 ppm which was the maximum tested, and so if the "No In." compound were active, the minimum inhibitory concentration would be above 500 ppm. The comparative tests were not run side-by-side, but were run on different days using the same methods. […] A minimum inhibitory concentration (MIC) value is obtained using a broth, two-fold serial dilution test performed as follows: […] A volume of the stock solution is dispensed into culture media to give an initial starting test concentration of the compound of 500 ppm or 250 ppm. When the test is ready to be done, each vessel in the dilution series, except the first vessel, contains an equal volume of compound free broth. The first vessel contains twice the volume of broth with the starting concentration of test compound. One half of the broth from the first vessel is transferred to the second vessel. After being mixed, one half the resulting volume is removed from the second vessel and transferred to the third vessel. […] Each vessel is then inoculated with a cell suspension of the appropriate test organism. Bacteria are grown in broth and fungi on agar […] is grown in cooling tower media for a time and at a temperature appropriate to the species being tested. At the end of the growth period, the broth is vortexed to disperse the cells. In the case of fungi, the spores are harvested by pipetting water onto the slant and dislodging the spores with a sterile loop. The cell/spore suspension is standardized by controlling incubation time, temperature, and the volume of the diluent. The suspension is then used to inoculate the vessels containing the broth compound. The vessels are then incubated at the appropriate temperature. After the incubation, the vessels are examined for growth/no growth. The MIC is defined as the lowest concentration of compound that results in complete inhibition of growth of the test organism. BACTERIA: Pseudomonas fluorescens (Ps.fl), gram negative; Pseudomonas aerugenosa (Ps.ae), gram negative; Escherichia coli (E.c), gram negative; and Staphylococcus aureus (S.a), gram positive.
# [2] = system: Escherichia coli; assay: MIC, broth two-fold serial dilution test, Escherichia coli (Ecol); assay type: cell-based
# Source text: as §1
# [3] = system: Staphylococcus aureus; assay: MIC, broth two-fold serial dilution test, Staphylococcus aureus (Saur); assay type: cell-based
# Source text: as §1
# [4] = system: Aspergillus niger; assay: MIC, broth two-fold serial dilution test, Aspergillus niger (Anig); assay type: cell-based; conditions: TSB
# Source text: as §1, with “INDUSTRIAL FUNGI: Aspergillus niger (A.n); Aureobasidium pullulans (A.p)” for “BACTERIA: Pseudomonas fluorescens (Ps.fl), gram negative; Pseudomonas aerugenosa (Ps.ae), gram negative; Escherichia coli (E.c), gram negative; and Staphylococcus aureus (S.a), gram positive.”
# [5] = system: Pseudoperonospora cubensis; assay: whole plant or invertebrate; assay type: in vivo; conditions: for pest or weed control at 200 ppm: Pseudoperonospora cubensis, in Cucumis sativus, 168 h, read-out: % Control CDM
# [6] = system: Piricularia oryzae; assay: whole plant or invertebrate; assay type: in vivo; conditions: Pyricularia oryzae, read-out: % Control RB
# [7] = system: Pellicularia filamentosa (f. sp. sasiki); assay: whole plant or invertebrate; assay type: in vivo; conditions: 120 h; read-out: % Control RSB
# [8] = system: Phytophthora infestans; assay: whole plant or invertebrate; assay type: in vivo; conditions: for pest or weed control at 200 ppm / pest or weed control at 50 ppm: Phytophthora infestans, in Solanum lycopersicum, 96 h; for pest or weed control at 50 ppm: read-out: % Control TLB, secondary greenhouse test (Table 5), 50 ppm
# [9] = system: Erysiphe graminis (f. sp. tritici); assay: whole plant or invertebrate; assay type: in vivo; conditions: for pest or weed control at 50 ppm / pest or weed control at 200 ppm: Blumeria graminis, read-out: % Control WPM
# [10] = system: Puccinia recondita (f. sp. tritici Races PKB and PLD); assay: whole plant or invertebrate; assay type: in vivo; conditions: for pest or weed control at 50 ppm / pest or weed control at 200 ppm: Puccinia recondita, 240 h, read-out: % Control WLR
# [11] = system: Septoria nodorum; conditions: in vivo
# [12] = system: TLB, CDM, WLR, SNW, WPM; conditions: in vivo
# [13] = read-out: % Control TLB, greenhouse test (Table 4), 200 ppm
# [14] = read-out: % Control TLB, secondary greenhouse test (Table 5), 200 ppm
SMILES,MIC ([1]; M9G) [µg/mL],MIC ([1]; TSB) [µg/mL],MIC ([2]; M9G) [µg/mL],MIC ([2]; TSB) [µg/mL],MIC ([3]; M9G) [µg/mL],MIC ([3]; TSB) [µg/mL],MIC [4] [µg/mL],further results
"CC(C)(C#CI)N1CC(=O)N(c2cc(Cl)cc(Cl)c2)C1=O [Compound 13, 1-(1,1-dimethyl-3-iodo-2-propynyl)-3-(3,5-dichlorophenyl)hydantoin]",> 500,> 500,> 500,> 500,> 500,> 500,8,"pest or weed control at 200 ppm [5]: 80%; pest or weed control at 50 ppm [6]: 50%; pest or weed control at 200 ppm [6]: 50%; pest or weed control at 50 ppm [7]: 50%; pest or weed control at 200 ppm [7]: 75%; pest or weed control at 200 ppm [8, 13]: 70%; pest or weed control at 50 ppm [8]: 0%; pest or weed control at 200 ppm [8, 14]: 50%; pest or weed control at 50 ppm [9]: 50%; pest or weed control at 200 ppm [9]: 75%; pest or weed control at 50 ppm [10]: 50%; pest or weed control at 200 ppm [10]: 90%"
"CC1(C)C(=O)N(c2cc(Cl)cc(Cl)c2)C(=O)N1CC#CI [Compound 6, 1-(3-iodo-2-propynyl)-3-(3,5-dichlorophenyl)-5,5-dimethylhydantoin]",> 500,> 500,> 500,> 500,8,2,1,"percent disease control CDM ([5]; in vivo): 100.0%; percent disease control TLB ([8]; advanced greenhouse test (Table 6), 0.25 kg a.i./ha): 70.0%; percent disease control WPM ([9]; in vivo): 68.0%; percent disease control WLR ([10]; in vivo): 82.0%; percent disease control SNW [11]: 68.0%; percent disease control Average [12]: 77.6%"
CC1(C)C(=O)N(CC#CI)C(=O)N1Cc1ccccc1 [Compound 14],> 500,> 500,125,250,> 500,64,4,–
"C#CCN1C(=O)NC(C)(C)C1=O [Compound 12, 3-(2-propynyl)-5,5-dimethylhydantoin, reference compound]",> 500,> 500,> 500,> 500,> 500,> 500,> 500,–
"C#CCN1C(=O)N(CC#C)C(C)(C)C1=O [Compound 11, 1,3-bis-(2-propynyl)-5,5-dimethylhydantoin, reference compound]",> 500,> 500,> 500,> 500,> 500,> 500,> 500,–
"C#CCN1C(=O)N(Cc2ccccc2)C(C)(C)C1=O [Compound 14, 1-benzyl-3-(propyn-2-yl)-5,5-dimethylhydantoin, reference compound]",> 500,> 500,> 500,> 500,> 500,> 500,> 500,–
"C#CCN1C(=O)N(Cc2ccccc2)C(=O)C1(C)C [Compound 8, 3-benzyl-1-propargyl-5,5-dimethylhydantoin, reference compound]",> 500,> 500,> 500,> 500,> 500,> 500,> 500,–
"O=C1CN(CC#CI)C(=O)N1c1cc(Cl)cc(Cl)c1 [Compound 7, 1-(3-iodo-2-propynyl)-3-(3,5-dichlorophenyl)hydantoin]",> 500,> 500,> 500,> 500,16,8,1,"pest or weed control at 200 ppm [5]: 50%; pest or weed control at 50 ppm [6]: 50%; pest or weed control at 200 ppm [6]: 50%; pest or weed control at 200 ppm [7]: 50%; pest or weed control at 200 ppm [8, 13]: 90%; pest or weed control at 50 ppm [8]: 50%; pest or weed control at 200 ppm [8, 14]: 90%; pest or weed control at 50 ppm [9]: 0%; pest or weed control at 50 ppm [10]: 50%"
CC1(C)C(=O)N(Cc2ccccc2)C(=O)N1CC#CI [Compound 8],32,125,64,125,16,16,< 0.25,"pest or weed control at 50 ppm [6]: 50%; pest or weed control at 200 ppm [6]: 50%; pest or weed control at 50 ppm [7]: 50%; pest or weed control at 200 ppm [7]: 75%; pest or weed control at 50 ppm [8]: 50%; pest or weed control at 200 ppm [8, 14]: 50%; pest or weed control at 50 ppm [9]: 0%; pest or weed control at 200 ppm [9]: 50%; pest or weed control at 50 ppm [10]: 80%; pest or weed control at 200 ppm [10]: 90%"
"CCCCN1C(=O)N(CC#CI)C(C)(C)C1=O [Compound 9, 1-(3-iodo-2-propynyl)-3-n-butyl-5,5-dimethylhydantoin]",64,500,16,500,4,16,2,–
CC1C(=O)N(c2cc(Cl)cc(Cl)c2)C(=O)N1CC#CI (centres unmarked) [Compound 1],> 500,> 500,> 500,> 500,> 500,> 500,0.5,"pest or weed control at 200 ppm [5]: 90%; pest or weed control at 50 ppm [6]: 50%; pest or weed control at 200 ppm [6]: 50%; pest or weed control at 50 ppm [7]: 50%; pest or weed control at 200 ppm [7]: 75%; pest or weed control at 200 ppm [8, 13]: 0%; pest or weed control at 50 ppm [8]: 75%; pest or weed control at 200 ppm [8, 14]: 95%; pest or weed control at 50 ppm [9]: 0%; pest or weed control at 50 ppm [10]: 50%; pest or weed control at 200 ppm [10]: 80%"
"CCCCCCCCN1C(=O)N(CC#CI)C(C)(C)C1=O [Compound 10, 1-(3-iodo-2-propynyl)-3-n-octyl-5,5-dimethylhydantoin]",125,> 500,250,> 500,2,4,4,–
"O=C1CNC(=O)N1CC#CI [Compound 15, 3-(3-iodo-2-propynyl)-hydantoin]",250,500,64,64,64,125,8,–
"C#CCN1C(=O)N(c2cc(Cl)cc(Cl)c2)C(=O)C1C (centres unmarked) [Compound 1', 1-(2-propynyl)-3-(3,5-dichlorophenyl)-5-methylhydantoin, reference compound]",> 500,> 500,> 500,> 500,> 500,> 500,> 500,–
